Test results published in article PMC5175396, “Cytotoxicity of Plumbagin, Rapanone and 12 other naturally occurring Quinones from Kenyan Flora towards human carcinoma cells” (BMC Pharmacology & Toxicology, 2016).

Assays:
[1] = system: Caco2 colorectal adenocarcinoma cells; experiment: Neutral red (NR) uptake cytotoxicity assay, Caco-2; type: cell-based, human; conditions: Homo sapiens, Caco-2; neutral red assay, 72 h incubation
Source text: (§1) Six human cancer cell lines and one normal cell line were used in this study. They included A549 human non-small cell lung cancer (NSCLC) cell line, obtained from the Institute for Fermentation, Osaka (IFO, Japan) and provided by Prof. Dr. Tansu Koparal (Anadolu University, Eskisehir, Turkey), SPC212 human mesothelioma cell line obtained from American Type Culture Collection (ATCC) and provided by Dr. Asuman Demiroğlu Zergeroğlu (Gebze Technical University, Kocaeli, Turkey), DLD-1 colorectal adenocarcinoma cell lines obtained from ATCC (CCL-221), Caco2 colorectal adenocarcinoma cells (ATCC, HTB-37) obtained from the ŞAP Institute of Turkey (Ankara), HepG2 hepatocarcinoma cells (ATCC, HB-8065) and MCF-7 breast adenocarcinoma cells (ATCC, HTB-22) were provided by Prof. Dr. Tansu Koparal (Anadolu University, Eskisehir, Turkey). The normal CRL2120 human skin fibroblasts were obtained from ATCC [CCD1094Sk (ATCC, CRL-2120)]. The cells were maintained as a monolayer in DMEM medium (Sigma-aldrich, Munich, Germany) medium supplemented with 10% fetal calf serum and 1% penicillin (100 U/mL)-streptomycin (100 μg/mL) in a humidified 5% CO2 atmosphere at 37 °C.
(§2) The cytotoxicity of samples was performed by NR uptake assay as previously described. This method is based on the ability of viable cells to incorporate and bind the supravital dye NR in the lysosomes. The procedure is cheaper and more sensitive than other cytotoxicity tests. […] Briefly, cells were detached by treatment with 0.25% trypsin/EDTA (Invitrogen) and an aliquot of 1 × 10^4 cells was placed in each well of a 96-well cell culture plate […]. The cells were allowed to attach overnight and subsequently treated with different concentrations of the 14 compounds. Each of the studied samples was immediately added in varying concentrations in additional 100 μL of culture medium to obtain a total volume of […]/well. After 72 h incubation in humidified 5% CO2 atmosphere at 37 °C, the medium was removed and 200 μL fresh medium containing 50 μg/mL NR was added to each well and incubation continued for an additional 3 h at 37 °C in 5% CO2 atmosphere. The dye medium was then removed and each well was then washed rapidly with 200 μL phosphate buffer saline (PBS) followed by addition of 200 μL of acetic acid-water-ethanol in water (1:49:50). The plates were kept for 15 min at room temperature to extract the dye and then shaken for a few minutes on a GFL 3012 shaker (Gesellschaft für Labortechnik mbH, Burgwedel, Germany). Absorbance was measured on ELx 808 Ultra Microplate Reader (Biotek) equipped with a 540 nm filter. Each assay was done at least three times, with three replicates each. The viability was evaluated based on a comparison with untreated cells. The IC50 values represent the sample’s concentrations required to inhibit 50% of cell proliferation and were calculated from a calibration curve by linear regression using Microsoft Excel.

[2] = Neutral red (NR) uptake cytotoxicity assay, Caco-2; type: cell-based, human; conditions: human; IC50 in CRL2120 normal fibroblasts divided by IC50 in Caco-2; read-out: selectivity index Caco-2 (converted)
Source text: as §1, §2

[3] = system: SPC212 human mesothelioma cell line; experiment: Neutral red (NR) uptake cytotoxicity assay, SPC212; type: cell-based; conditions: for selectivity index SPC212: IC50 in CRL2120 normal fibroblasts divided by IC50 in SPC212
Source text: as §1, §2

[4] = system: caspase 3/7 in MCF-7 cells; experiment: Caspase-Glo 3/7 assay; type: cell-based, human; conditions: IC50 and 2-fold IC50, 6 h (data not shown)
Method: Caspases activity in MCF-7 cells was detected using Caspase-Glo 3/7 and Caspase-Glo 9 Assay kits (Promega, Mannheim, Germany) as previously reported. […] Luminescence was measured using an BioTek Synergy™ HT multi-detection microplate reader. Caspase activity was expressed as percentage of the untreated control.

MCF-7 cells [5] = experiment: Flow cytometry cell cycle analysis and detection of apoptotic cells; type: cell-based, human; conditions: for Sub-G0/G1 (apoptotic) cells, % of cells: non-treated cells 3.1%; for cell cycle arrest: ¼ × IC50 to IC50, 72 h
Method: The cell-cycle analysis was performed by flow cytometry using BD cycletest^TM Plus DNA Kit Assay (BD Biosciences, San Jose, USA). The BD Cycletest™ Plus DNA kit provides a set of reagents for isolating and staining cell nuclei. Flow cytometric analysis of differentially stained cells is used to estimate the DNA index (DI) and cell-cycle phase distributions. Briefly, MCF-7 cells (3 mL, 1 × 10^5 cells/mL) were seeded into each well of 6-well plates and allowed to attach for 24 h. […] The untreated cells (control) were also included in the assay. They were further trypsinized and suspended in 1 mL PBS, then centrifuged at 400 g for 5 min at room temperature (RT). The cells were further processed according to the manufacturer protocol: addition of 250 μL of solution A (trypsin buffer), 10 min incubation at RT followed by the addition of 200 μL of solution B (trypsin inhibitor and RNAse buffer), 10 min incubation at RT followed by the addition of 200 μL of solution C (2–8 °C) (propidium iodide stain solution), 10 min on ice. The cells were further measured on a BD FACS Aria I Cell Sorter Flow Cytometer (Becton-Dickinson, Germany). For each sample, 10^4 cells were counted. For PI excitation, an argon-ion laser emitting at 488 nm was used. Cytographs were analyzed using BD FACSDiva™ Flow Cytometry Software Version 6.1.2 (Becton-Dickinson).

[6] = system: normal CRL2120 human skin fibroblasts; experiment: Neutral red (NR) uptake cytotoxicity assay, normal CRL2120 fibroblasts; type: cell-based; conditions: Skin fibroblast, 72 h incubation
Source text: as §1, §2

MCF-7 cells [7] = experiment: Measurement of reactive oxygen species (ROS), DCFH-DA; type: cell-based, human; conditions: at IC50, 24 h
Method: This is a cell-based assay for measuring hydroxyl, peroxyl, or other reactive oxygen species activity within a cell. The assay employs the cell-permeable fluorogenic probe 2′,7′-dichlorodihydrofluorescin diacetate (DCFH-DA). DCFH-DA is diffused into cells and is deacetylated by cellular esterases to non-fluorescent 2′,7′-dichlorodihydrofluorescin (DCFH), which is rapidly oxidized to highly fluorescent 2′,7′-dichlorofluorescein (DCF) by ROS. […] After addition of 100 μL 1× DCFH-DA/DMEM solution to cells and incubation at 37 °C for 30–60 min, the fluorescence was measured using SpectraMax® M5 Microplate Reader (Molecular Devices, Biberach, Germany) at 480/530 nm. All experiments were performed at least in triplicate.

[8] = system: HepG2 hepatocarcinoma cells; experiment: Neutral red (NR) uptake cytotoxicity assay, HepG2; type: cell-based, human; conditions: for IC50: Homo sapiens, HepG2, neutral red assay, 72 h incubation, read-out: IC50 HepG2; for selectivity index HepG2: IC50 in CRL2120 normal fibroblasts divided by IC50 in HepG2
Source text: as §1, §2

| Compound | IC50 [1] [µM] | selectivity ratio at 72 h [2] | IC50 ([3]; Homo sapiens, 72 h, neutral red assay, 72 h incubation, read-out: IC50 SPC212) [µM] | selectivity index SPC212 [3] | activity of caspase 3/7 [4] | Sub-G0/G1 (apoptotic) cells, % of cells (MCF-7 cells [5]; 1/4xIC50, 72 h) [%] | Sub-G0/G1 (apoptotic) cells, % of cells (MCF-7 cells [5]; IC50, 72 h) [%] | cell cycle arrest (MCF-7 cells [5]) | IC50 [6] [µM] | increase in ROS levels as compared with non-treated cells (MCF-7 cells [7]) | IC50 [8] [µM] | selectivity index HepG2 [8] |
| --- | --- | --- | --- | --- | --- | --- | --- | --- | --- | --- | --- | --- |
| CC1=CC(=O)c2c(O)cccc2C1=O [Compound 4, 5-hydroxy-2-methyl-1,4-naphthalenedione] | 0.07 ± 0.01 | 967 | 0.27 ± 0.01 | 250.59 | no modification | 10.4 | 20.4 | cell cycle arrest between G0/G1 and S phases | 67.7 ± 6.49 | more than 3 fold | 1.01 ± 0.08 | 66.99 |
| CCCCCCCCCCCCCC1=C(O)C(=O)C=C(O)C1=O [Compound 9, 2,5-dihydroxy-3-tridecyl-2,5-cyclohexadiene-1,4-dione] | 22.95 ± 0.13 | 4.15 | – | 41.96 | no modification | 34.8 | 43.2 | cell cycle arrest between G0/G1 and S phases | 95.2 ± 6.65 | less than 2 fold | 32.7 ± 0.61 | 2.91 |
